Read-outs that look alike come from different tables or passages of the source.
Assays:
[1] = test system: Pi-GT1b-Rluc replicon; assay: Replicon antiviral assay, transient transfection, luciferase activity (GT1b); assay type: cell-based, Hepatitis C virus genotype 1b; conditions: Hepatitis C virus
Procedure: (§1) Replicon RNA were electroporated into 1C cells as described above. After transfection, cells were quickly transferred into 100 mL of pre-warmed culture medium, and 90 μl was seeded in 384-well plates at a density of 2,000 cells/well. Cells were treated with three-fold serial drug dilutions at 10 different concentrations. Cell plates were incubated at 37° C. for 3 days, after which culture medium was removed and cells were assayed for luciferase activity as markers for replicon levels. Luciferase expression was quantified using a commercial luciferase assay (Promega). Luciferase levels were converted into percentages relative to the levels in the untreated controls (defined as 100%), and data were fitted to the logistic dose-response equation y=a/[1+(x/b)^c] using XLFit4 software (IDBS, Emeryville, Calif.).
(§2) Five different classes of HCV inhibitors as listed in the first column were evaluated for their antiviral activities against Pi-GT6a-Rluc and Pi-GT1b-Rluc replicons in a high throughput 384-well transient transfection assay, by measuring luciferase activity (Table 5). The data represents an average of at least two independent experiments with standard deviations.

[2] = test system: GT6aRluc-K272R replicon; assay: Replicon antiviral assay, transient transfection, luciferase activity (GT6a, NS3 K272R); assay type: cell-based, Hepatitis C virus genotype 6a; conditions: for EC50: Hepatitis C virus, 1C cells, 384-well transient transfection, mean ± SD of at least two experiments
Procedure: as §1, §2

[3] = test system: GT6aRluc-K34R replicon; assay: Replicon antiviral assay, transient transfection, luciferase activity (GT6a, NS4A K34R); assay type: cell-based, Hepatitis C virus genotype 6a; conditions: for EC50: Hepatitis C virus, 1C cells, 384-well transient transfection, mean ± SD of at least two experiments
Procedure: as §1, §2

[4] = test system: Pi-GT6a-Rluc replicon; assay: Replicon antiviral assay, luciferase-encoding GT6a replicon (Table 4); assay type: cell-based, Hepatitis C virus genotype 6a; conditions: for EC50: Hepatitis C virus, GT6A, 72 h, read-out: GT6a EC50
Procedure: as §1

[5] = Table 5, 1C cells, 384-well transient transfection, mean ± SD of at least two experiments, read-out: GT1bRluc EC50
[6] = read-out: GT6aRluc-K272R EC50, Table 5
[7] = read-out: GT6aRluc-K34R EC50, Table 5
[8] = 72 h, Table 4, 1C cells, 384-well, 3 days, mean ± SD, read-out: GT1b EC50
[9] = Table 4, 1C cells, 384-well, 3 days, mean ± SD, adaptive mutation not stated
[10] = Table 5, read-out: GT6aRluc-K272R EC50
[11] = Table 5, read-out: GT6aRluc-K34R EC50

Row | Compound | EC50 [1, 5] [nM] | EC50 [2, 6] [nM] | GT6a(K272R)/1b EC50 ratio ([2]; Table 5) | EC50 [3, 7] [nM] | GT6a(K34R)/1b EC50 Ratio ([3]; Table 5) | EC50 [1, 8] [nM] | EC50 [4, 9] [nM] | GT6a/GT1b EC50 ratio ([4]; Table 4) | EC50 [2, 10] [nM] | EC50 [3, 11] [nM] | EC50 [4] [nM] | antiviral activity against GT6a compared with GT1b ([4]; summary of Table 4)
1 | COc1ccc2c(O[C@@H]3C[C@H]4C(=O)N[C@]5(C(=O)O)C[C@H]5/C=C\CCCCC[C@H](NC(=O)OC5CCCC5)C(=O)N4C3)cc(-c3csc(NC(C)C)n3)nc2c1 [BILN-2061] | 0.99 ± 0.1 | 17 | 17.2 | 17 ± 9 | 17.2 | – | – | – | – | – | – | –
2 | CC(C)(C)NC(=O)N[C@H](C(=O)N1C[C@H]2[C@@H]([C@H]1C(=O)NC(CC1CCC1)C(=O)C(N)=O)C2(C)C)C(C)(C)C (some centres unmarked) [Boceprevir, boceprevir] | 181 ± 42 | 185 ± 42 | 1 | 168 ± 21 | 0.9 | 188 ± 42 | 177 ± 21 | 0.9 | – | – | – | –
3 | CCC1C[C@]1(NC(=O)[C@@H]1C[C@@H](Oc2cc(-c3csc(NC(C)C)n3)nc3c(Cl)c(OCCN4CCOCC4)ccc23)CN1C(=O)[C@@H](NC(=O)O[C@@H]1C[C@@H]2C[C@@H]2C1)C(C)(C)C)C(=O)O (some centres unmarked) [Compound A] | – | – | – | – | – | 8.3 ± 1.6 | 72 ± 25 | 8.7 | – | – | – | –
4 | COC(=O)N[C@H](C(=O)N1CC2(CC2)C[C@H]1c1nc(-c2ccc3c(c2)C(F)(F)c2cc(-c4ccc5cc([C@@H]6[C@H]7CC[C@H](C7)N6C(=O)[C@@H](NC(=O)OC)C(C)C)[nH]c5c4)ccc2-3)c[nH]1)C(C)C [Compound B] | – | – | – | – | – | 0.007 ± 0.003 | 0.79 ± 0.05 | 113 | – | – | – | –
5 | CC1=CC[C@H](C(=O)N(c2cc(C#CC(C)(C)C)sc2C(=O)O)[C@H]2CC[C@](O)(CO[C@H]3CCOC3)CC2)CC1 [Compound C] | 3.5 ± 0.3 | – | 210.3 | – | 250.6 | 3.5 ± 0.3 | 877 ± 4 | 251 | 736 ± 18 | 877 ± 4 | – | –
6 | COC(=O)N[C@H](C(=O)N1CCC[C@H]1c1nc(-c2ccc(-c3ccc(-c4c[nH]c([C@@H]5CCCN5C(=O)[C@@H](NC(=O)OC)C(C)C)n4)cc3)cc2)c[nH]1)C(C)C [Daclatasvir, daclatasvir] | 0.034 ± 0.018 | – | 2.4 | – | 1.2 | 0.034 ± 0.018 | 0.06 ± 0.03 | 1.8 | 0.08 ± 0.04 | 0.04 ± 0.01 | – | –
7 | CCc1cc(CC[C@]2(C3CCCC3)CC(O)=C(Cc3nc4nc(C)cc(C)n4n3)C(=O)O2)cc(CC)n1 [Filibuvir, filibuvir] | 112 ± 13 | – | 31.6 | – | >40 | 112 ± 13 | – | 32 | 3540 ± 93 | > 4440 | 3540 ± 93 | –
8 | CNC(=O)c1c(-c2ccc(F)cc2)oc2cc(N(CCO)S(C)(=O)=O)c(C3CC3)cc12 [HCV-796] | 20 ± 5.5 | – | 1.1 | – | 1.1 | 20 ± 5.5 | 21 ± 0.5 | 1.0 | 21 | 21 | – | retained activity against GT6a
9 | CN(C)CCN(C)[C@H]1COc2ccccc2-c2c(C3CCCCC3)c3ccc(C(=O)O)cc3n2C1 [MK-3281] | 534 ± 47 | – | 2.5 | – | 2.4 | – | – | – | 1310 ± 635 | 1280 ± 471 | – | –
10 | C=C[C@@H]1C[C@]1(NC(=O)[C@@H]1C[C@@H]2CN1C(=O)[C@H](C(C)(C)C)NC(=O)O[C@@H]1C[C@H]1CCCCCc1nc3ccc(OC)cc3nc1O2)C(=O)NS(=O)(=O)C1CC1 [MK-5172] | 0.74 ± 0.07 | – | 4.1 | – | 1.9 | 0.74 ± 0.07 | – | 3.1 | 3 ± 0.4 | 1.4 ± 0.3 | 2.3 ± 0.3 | –
11 | CC(C)OC(=O)[C@H](C)N[P@](=O)(OC[C@H]1O[C@@H](n2ccc(=O)[nH]c2=O)[C@](C)(F)[C@@H]1O)Oc1ccccc1 [Sofosbuvir, sofosbuvir] | 39 ± 1.1 | – | 0.4 | – | 0.4 | 39 ± 1.1 | 14 ± 4.1 | 0.4 | 14 ± 5 | 14 ± 4 | – | –
12 | Fc1ccccc1-c1nc2ccn(Cc3ccc(-c4ccc(C(F)(F)F)cc4C(F)(F)F)nn3)cc-2n1 [Tegobuvir, tegobuvir] | 2.6 ± 0.2 | – | 42.3 | – | 45.8 | 2.6 ± 0.2 | 119 ± 6 | 46 | 110 ± 21 | 119 ± 6 | – | –
13 | CCC[C@H](NC(=O)[C@@H]1[C@H]2CCC[C@H]2CN1C(=O)[C@@H](NC(=O)[C@@H](NC(=O)c1cnccn1)C1CCCCC1)C(C)(C)C)C(=O)C(=O)NC1CC1 [Telaprevir] | 428 ± 22 | – | 0.5 | – | 0.8 | 428 ± 22 | 349 ± 20 | 0.8 | 208 ± 41 | 349 ± 20 | – | –
